From patent publication US11185527B2, “Methods and compositions relating to steroid hormone receptor-dependent cancers” (Wayne State University, priority 2017, dated 2021)

What was measured:
[1] = tested on: AR recruitment to chromatin in LNCaP cells; assay: Chromatin immunoprecipitation (ChIP) with AR antibody in LNCaP cells; assay type: cell-based; conditions: R1881 10 nM + KCI807 20 uM, 2h
Description: FIGS. 2E and 2F are graphs showing results of tests in which LNCaP cells were treated with R1881 (10 nM), R1881 (10 nM)+KCI807 (20 uM), or vehicle for 2h. The cells were fixed and subjected to the chromatin immunoprecipitation (ChIP) assay using antibody to AR. ChIP signals from established sites of AR recruitment by ELK1 (FIG. 2E) or from canonical ARE enhancer sites associated with the KLK3 and TMPRSS2 genes (FIG. 2F) are plotted as percent of input DNA.
The ability of KCI807 to selectively block recruitment of AR by ELK1 to chromatin in situ was tested.

ZR-75-1 cells = assay: Breast cancer cell growth, MTT assay; assay type: cell-based
Description: FIG. 17A is a graph showing the effect on growth of various concentrations of 5,3′-Dihydroxyflavone on breast cancer cell line ZR-75-1 using the MTT assay.
Twenty four hours after plating the cells, they were treated with the indicated concentrations of the compound.

binding of AR to ELK1 = binding of AR to ELK1 (Homo sapiens, UniProt P10275); assay: SPR competition: inhibition of binding of AR (analyte) to immobilized ELK1; conditions: AR 200 nM as analyte
[2] = Intracellular concentration of compounds by LC-MS/MS (relative stability); assay type: in vitro ADME; conditions: media concentration of 2 uM compound
Description: The suspended cells were sonicated to cell lysate, and then 1000 μL ethyl acetate was added. The mixture was vortex-mixed for 15 minutes and centrifuged at 14000 rpm at […] for 15 min. 950 uL of the supernatant was transferred to a new 1.7 mL centrifuge tube, and dried under a steam of nitrogen at room temperature. The sample was then reconstituted with 100 μL 40% acetonitrile, and 5 μL was injected into the LC-MS/MS system. Measured concentrations were normalized to cell protein concentrations.

22Rv1 CRPC cells = assay: Colony growth assay; assay type: cell-based, human
Description: FIGS. 4A, 4B, 4C, 4D, 4E, 4F, 4G, and 4H relate to inhibition of AR-dependent PC/CRPC clonogenic survival and cell growth by KCI807 and comparison with enzalutamide. FIG. 4A is an image of 22Rv1 cells that were seeded in phenol red-free growth media and treated with the indicated concentration of KCI807, replenishing the treatments every 48h. Colonies were stained with crystal violet 10 days after plating. Treatments were conducted in triplicate. Representative images are shown. FIG. 4B is a graph showing data from replicate colony formation assays shown in FIG. 4A are plotted as a histogram. Each bar represents the average number of colonies for each triplicate treatment. Cells were trypsinized, and 1000 cells/well were seeded in poly-D-lysine coated 6-well plates in phenol red-free regular growth media. The cells were treated with the indicated concentration of KCI807, which was replenished every 48h. The cells were grown at 37° C. in 5% CO2 for 10 days until colonies-grew to the desired size in the untreated control wells. Colonies were fixed with methanol and stained with crystal violet. Each treatment was conducted in triplicate and the number of colonies was counted using the GelCount™ colony counter and a 350 size cutoff.

[3] = Body weight and condition of mice in the 22Rv1 xenograft study; conditions: 22Rv1 study

Chain of binding of AR to ELK1 (P10275 whole entry): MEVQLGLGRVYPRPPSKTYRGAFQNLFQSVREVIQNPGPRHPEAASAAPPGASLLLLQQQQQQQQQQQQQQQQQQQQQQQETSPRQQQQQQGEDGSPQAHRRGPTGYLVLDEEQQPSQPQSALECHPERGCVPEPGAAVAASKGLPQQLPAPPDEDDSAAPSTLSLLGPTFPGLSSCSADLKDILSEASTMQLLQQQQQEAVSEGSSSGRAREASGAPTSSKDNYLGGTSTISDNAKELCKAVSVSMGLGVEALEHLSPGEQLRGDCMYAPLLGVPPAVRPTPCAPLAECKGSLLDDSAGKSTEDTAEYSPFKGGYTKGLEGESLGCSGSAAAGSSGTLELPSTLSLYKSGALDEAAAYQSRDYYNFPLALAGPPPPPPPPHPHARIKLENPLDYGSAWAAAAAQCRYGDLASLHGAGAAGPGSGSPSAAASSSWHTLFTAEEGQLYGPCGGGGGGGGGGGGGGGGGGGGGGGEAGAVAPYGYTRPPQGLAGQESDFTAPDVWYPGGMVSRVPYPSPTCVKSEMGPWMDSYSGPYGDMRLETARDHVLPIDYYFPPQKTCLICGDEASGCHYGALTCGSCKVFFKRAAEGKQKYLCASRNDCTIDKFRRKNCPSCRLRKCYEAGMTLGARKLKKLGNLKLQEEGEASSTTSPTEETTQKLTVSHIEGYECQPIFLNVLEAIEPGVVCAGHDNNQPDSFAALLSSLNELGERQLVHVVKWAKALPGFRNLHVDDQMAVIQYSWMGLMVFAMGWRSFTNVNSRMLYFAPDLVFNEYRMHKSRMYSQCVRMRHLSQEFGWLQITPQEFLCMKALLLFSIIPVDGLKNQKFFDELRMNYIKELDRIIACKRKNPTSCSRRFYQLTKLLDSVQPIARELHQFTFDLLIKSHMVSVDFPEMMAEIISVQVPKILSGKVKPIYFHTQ

O=c1cc(-c2cccc(O)c2)oc2cccc(O)c12 [KCI807, 5,3′-dihydroxyflavone]
AR association with chromatin sites at which ELK1 recruits AR [1]: prevented association of AR
AR recruitment at canonical ARE enhancer sites (KLK3, TMPRSS2) [1]: did not affect AR recruitment
growth of ZR-75-1 cells (ZR-75-1 cells): did not inhibit the growth
inhibition of binding of AR to immobilized ELK1 (binding of AR to ELK1): blocked binding
intracellular concentration between 1h and 6h [2]: unchanged
colony growth inhibition (in words) (22Rv1 CRPC cells; 22Rv1, beyond 125 nM compound): virtually completely inhibited
IC50 (22Rv1 CRPC cells; Homo sapiens, 22Rv1, 10 days, treatment replenished every 48h, read-out: IC50 of colony growth inhibition): 33.1 nM

CNC(=O)c1ccc(N2C(=S)N(c3ccc(C#N)c(C(F)(F)F)c3)C(=O)C2(C)C)cc1F [enzalutamide]
% body weight lost/gained ([3]; Day 0 after tumor implantation): 0%
% body weight lost/gained ([3]; Day 6 after tumor implantation): +3.7%
% body weight lost/gained ([3]; Day 11 after tumor implantation): +5.5%
% body weight lost/gained ([3]; Day 14 after tumor implantation): +3.7%
% body weight lost/gained ([3]; Day 17 after tumor implantation): +4.6%
% body weight lost/gained ([3]; Day 20 after tumor implantation): +4.6%
% body weight lost/gained ([3]; Day 24 after tumor implantation): +4.6%
% body weight lost/gained ([3]; Day 25 after tumor implantation): +3.7%
